Measured values from patent publication US10899781B2, “Platinum complex, its preparation and therapeutic use” (City University of Hong Kong, priority 2018, dated 2021).

Assays:
[1] = test system: MRC-5 normal human lung fibroblasts; assay: Cytotoxicity, MTT assay; type: cell-based; settings: in dark, MTT at 40 h
Protocol: (§1) The biological activity of Complex A was subsequently evaluated. A2780 cells were maintained in Roswell Park Memory Institution (RPMI) 1640 medium supported with 10% FBS, 2 mM L-glutamine, and 100 unit/mL penicillin/streptomycin. MCF-7 cells were cultured in Dulbecco's modified Eagle's medium supported with 10% FBS and 100 unit/mL penicillin/streptomycin. MRC-5 cells were maintained in Eagle's minimum essential medium supported with 10% FBS, 1 mM sodium pyruvate, 2 mM L-glutamine, 1 mM non-essential amino acid and 100 unit/mL penicillin/streptomycin. All the cells were incubated in a humidified incubator at 37° C. with 5% CO2
Cytotoxicity test was performed by exposing the cancer cells with Complex A. The viability of cancer cells exposed was evaluated by means of MTT assay. Cells were seeded in 96-well plates at a density of 3,000 cells per well and incubated until the cell confluency reached 50%. Then, the medium was removed and replaced with fresh medium containing different concentrations of complexes with 1% DMF. […] The absorbance at 570 nm and 730 nm of each well was measured by using a microplate reader (BioTek PowerWave XS).
The cytotoxicity of Complex A was then evaluated, using oxaliplatin and PPA as controls. Cells were treated with the compounds for 8 h, followed by irradiation or incubation in the dark, and the cell viability was measured by the MTT assay after 40 h. […]

[2] = test system: A2780cisR (platinum-resistant A2780 cells); assay: Cytotoxicity, MTT assay; type: cell-based, human; settings: for IC50: A2780cisR, 8 h treatment
Protocol: as §1
(§2) Cytotoxicity test was performed by exposing the cancer cells with Complex A. The viability of cancer cells exposed was evaluated by means of MTT assay. Cells were seeded in 96-well plates at a density of 3,000 cells per well and incubated until the cell confluency reached 50%. Then, the medium was removed and replaced with fresh medium containing different concentrations of complexes with 1% DMF. After 8 h, the medium was aspirated, the well was washed with PBS for twice, and Earle's balanced salt solution (EBSS) was added. […] The EBSS was removed, and fresh complete cell culture medium was added to each well. After 40 h, the medium was changed to serum-free medium containing 1 mg/mL MTT. After 2 h additional incubation, the medium was removed, and DMSO (200 μL) was delivered to each well to dissolve the formed purple formazan. The absorbance at 570 nm and 730 nm of each well was measured by using a microplate reader (BioTek PowerWave XS).
(§3) The cytotoxicity of Complex A was then evaluated, using oxaliplatin and PPA as controls. Cells were treated with the compounds for 8 h, followed by irradiation or incubation in the dark, and the cell viability was measured by the MTT assay after 40 h. Complex A is non-toxic to the tested cells in the dark, and is very active under irradiation.

[3] = test system: A2780 ovarian carcinoma cells; assay: Cytotoxicity, MTT assay; type: cell-based, human; settings: 8 h treatment
Protocol: as §1, §2, §3

MCF-7 cells = assay: Cytotoxicity, MTT assay; type: cell-based, human
Protocol: as §1, §2, §3

A2780 cells = assay: Cellular accumulation of platinum by ICP-MS; type: cell-based, human; settings: after 8 h
Protocol: FIG. 5 is a plot showing the accumulation of Complex A in A2780 cells after treatment with 0.5 μM Complex A for 1 to 12 h.
The inventors first tested the cellular accumulation of Complex A by ICP-MS. Platinum accumulation in A2780 cells increases dramatically over time before 8 h and very slowly increases over time after 8 h. Thus, an incubation time of 8 h is selected for the following biological assays.
The cellular accumulation levels of Pt in A2780 cells treated with Complex A and oxaliplatin after 8 h are 6.4±1.2 and 0.9±0.1 ng Pt/106 cells, respectively. […] The cellular distribution of Complex A was also observed.

Fluorescence lifetime = type: physicochemical; settings: in DMF
From the text: The inventors further investigated the mechanism of the reduction Complex A. No overlap was observed between the absorbance spectra of PPA and the dihydroxyl Pt(IV) compound [Pt(DACH)(OH)2(ox)]. Therefore, direct energy transfer may not occur between PPA and the Pt(IV) center. […] The normalized fluorescence intensity of PPA and Complex A is identical, and the fluorescence lifetime of Complex A is 7 ns in DMF, which is the same as PPA. […] Since PPA is able to generate reactive oxygen species (ROS) and singlet oxygen through type I and type II photo process, respectively, the inventors used a hydroxyl radical scavenger, DMSO, and a singlet oxygen scavenger, NaN3, to investigate the electron transfer process. […] Thus, without to be bound by theory, the inventors believe that hydroxy radical is involved in the reaction, and the elimination of hydroxy radical may accelerate the reaction. Furthermore, it was observed that the reduction rate is related to the water content in the system.

[4] = Photoactivation (photo-reduction) of Complex A under 650 nm irradiation, HPLC; type: physicochemical; settings: mixture of the compound and PPA in the presence of ascorbate
Protocol: FIG. 3 is a combined RP-HPLC chromatogram showing the intensity of Complex A and PPA after 10 μM Complex A in PBS buffer containing 1% DMF and 1 mM ascorbate was subject to irradiation at 650 nm with a power density of 7 mW/cm^2 for different time periods (from 0 min to 30 min). Peak 1 corresponds to Complex A, and Peak 2 corresponds to PPA.
FIG. 4 is a plot showing the amount of Complex A and PPA after subjecting to irradiation at 650 nm calculated from the results in FIG. 3.
The photoactivation property of Complex A was investigated. Buffer solution containing 10 μM Complex A with 1 mM ascorbate in a quartz cuvette was irradiated with LED lamp (650 nm, 7 mW/cm^2) under stirring. Samples were analyzed by HPLC. […] After irradiation for 10 min, 81% of Complex A was reduced, and most of the complex was reduced within 30 min. Irradiation of Complex A without the presence of ascorbate also leads to the release of PPA and oxaliplatin, but the reaction speed is much slower.
The inventors further investigated the mechanism of the reduction Complex A. No overlap was observed between the absorbance spectra of PPA and the dihydroxyl Pt(IV) compound [Pt(DACH)(OH)2(ox)]. […] The normalized fluorescence intensity of PPA and Complex A is identical, and the fluorescence lifetime of Complex A is 7 ns in DMF, which is the same as PPA. […]

[5] = with irradiation at 650 nm (7 mW/cm^2) for 15 min, MTT at 40 h after irradiation
[6] = Homo sapiens, light or radiation study, with irradiation at 650 nm (7 mW/cm^2) for 15 min, MTT at 40 h after irradiation
[7] = Homo sapiens, in the dark, MTT at 40 h

Question: With O=C1[O][Pt]2([NH][C@@H]3CCCC[C@H]3[NH]2)[O]C1=O [Oxaliplatin, oxaliplatin] as the compound, how does the IC50 ([1]; 8 h treatment) read?
Answer: 122 ± 5.2 µM

Question: What about the IC50 ([2]; in the dark, MTT at 40 h) of the same compound?
Answer: 162 ± 9 µM

Question: And the IC50 [2, 5]?
Answer: 185 ± 8 µM

Question: What about the resistant factor ([2]; IC50 towards cisplatin-resistant cells divided by IC50 towards non-resistant cells (A2780cisR / A2780)) of the same compound?
Answer: 2.7

Question: What about the IC50 ([3]; in the dark, MTT at 40 h) of the same compound?
Answer: > 40 µM

Question: And the IC50 [3, 5]?
Answer: > 40 µM

Question: What about the IC50 (MCF-7 cells; 8 h treatment, in the dark, MTT at 40 h) of the same compound?
Answer: 110 ± 4.3 µM

Question: What about the IC50 (MCF-7 cells; 8 h treatment, with irradiation at 650 nm (7 mW/cm^2) for 15 min, MTT at 40 h after irradiation) of the same compound?
Answer: 78.6 ± 8.7 µM

Question: What about the “cellular accumulation levels of Pt” value (A2780 cells) of the same compound?
Answer: 0.9±0.1 ng Pt/106 cells

Question: Which results are given for C=Cc1c(C)c2cc3nc(c4c5[nH]c(cc6nc(cc1[nH]2)C(C)=C6CC)c(C)c5C(=O)C4)[C@@H](CCC(=O)O)[C@@H]3C [PPA, pyropheophorbide a]?
Answer: IC50 ([1]; Homo sapiens, MRC5, 8 h treatment): > 10 µM; IC50 [2, 6]: 0.23 ± 0.01 µM; IC50 [2, 7]: > 10 µM; IC50 [3, 7]: > 10 µM; IC50 [3, 6]: 0.34 ± 0.05 µM; IC50 (MCF-7 cells; Homo sapiens, MCF7, 8 h treatment, in the dark, MTT at 40 h): > 10 µM; IC50 (MCF-7 cells; Homo sapiens, MCF7, light or radiation study, 8 h treatment, with irradiation at 650 nm (7 mW/cm^2) for 15 min, MTT at 40 h after irradiation): 0.2 ± 0.02 µM; fluorescence lifetime (Fluorescence lifetime): 7 ns

Question: Which reduction under irradiation [4] does the source give for “[Pt(DACH)(OH)2(ox)] [[(Pt(DACH)(OH)2(ox))]]” here?
Answer: cannot be reduced
